Laboratory results: patent US6358885B1, “Substituted phenylheterocyclic herbicides” (Mississippi State University, priority 1992, dated 2002)

Assays:
lambsquarters = assay: Test B preemergence/postemergence greenhouse plant response rating 0 to 10; assay type: in vivo, Chenopodium album; details: for Plant response rating, Lambsquarter: 0 to 10 scale
Summary of the method: (§1)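 Postemergence treatment of plants two to eighteen cm tall ran alongside preemergence treatment of planted seed, each using compound in a non-phytotoxic solvent.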

wild oat = assay: Test C preemergence/postemergence greenhouse plant response rating 0 to 100; assay type: in vivo, Avena fatua; details: for Plant response rating, Wild oat: 0 to 100 scale
From the text: (§2) The compounds evaluated in this test were formulated in a non-phytoxic solvent and applied to the soil surface before plant seedlings emerged (preemergence application), to water that covered the soil surface (flood application), and to plants that were in the one-to-four leaf stage (postemergence application). A sandy loam soil was used for the preemergence and postemergence tests, while a silt loam soil was used in the flood test. Water depth was approximately 2.5 cm for the flood test and was maintained at this level for the duration of the test. Plant species in the preemergence and postemergence tests consisted of barley (Hordeum vulgare), bedstraw (Galium aparine), blackgrass (Alopecurus myosuroides), chickweed (Stellaria media), corn (Zea mays), cotton (Gossypium hirsutum), crabgrass (Digitaria sanguinalis), downy brome (Bromus tectorum), giant foxtail (Setaria faberii), lambsquarters (Chenopodium album), morningglory (Ipomoea hederacea), pigweed ([…]), rape (Brassica napus), ryegrass (Lolium multiflorum), sorghum (Sorghum bicolor), soybean (Glycine max), speedwell (Veronica persica), sugar beet (Beta vulgaris), velvetleaf (Abutilon theophrasti), wheat (Triticum aestivum), wild buckwheat (Polygonum convolvulus), and wild oat (Avena fatua). All plant species were planted one day before application of the compound for the preemergence portion-of this test. Plantings of these species were adjusted to produce plants of appropriate size for the post-emergence portion of the test. […] All plant species were grown using normal greenhouse practices. Visual evaluations of injury expressed on treated plants, when compared to untreated controls, were recorded approximately fourteen to twenty one days after application of the test compound. […] A dash (-) response means no test result.

velvetleaf [1] = assay: as above; assay type: in vivo, Abutilon theophrasti; details: for Plant response rating, Velvetleaf: 0 to 100 scale
From the text: as §2

crabgrass = assay: as above; assay type: in vivo, Digitaria sanguinalis; details: for Plant response rating, Crabgrass: 0 to 100 scale
From the text: as §2

rice = assay: Test C flood test plant response rating 0 to 100; assay type: in vivo, Oryza sativa; details: for Plant response rating Rice Japonica: flood test species listed under POSTEMERGENCE, 0 to 100 scale
From the text: as §2

velvetleaf [2] = assay: Test B preemergence/postemergence greenhouse plant response rating 0 to 10; assay type: in vivo, Abutilon theophrasti; details: for Plant response rating, Velvetleaf: 0 to 10 scale
Summary of the method: as §1

sorghum = assay: Test C preemergence/postemergence greenhouse plant response rating 0 to 100; assay type: in vivo, Sorghum bicolor; details: for Plant response rating, Sorghum: 0 to 100 scale
From the text: as §2

sugar beet = assay: Test B preemergence/postemergence greenhouse plant response rating 0 to 10; assay type: in vivo, Beta vulgaris; details: for Plant response rating, Sugar beet: 0 to 10 scale
Summary of the method: as §1

pigweed = assay: Test C preemergence/postemergence greenhouse plant response rating 0 to 100; assay type: in vivo, Amaranthusretroflexus; details: for Plant response rating Pigweed: 0 to 100 scale
From the text: as §2

cotton = assay: as above; assay type: in vivo, Gossypium hirsutum; details: for Plant response rating, Cotton: 0 to 100 scale
From the text: as §2

barnyardgrass = assay: Test B preemergence/postemergence greenhouse plant response rating 0 to 10; assay type: in vivo, Echinochloa crus-galli; details: for Plant response rating, Barnyardgrass: 0 to 10 scale
Summary of the method: as §1

giant foxtail = assay: as above; assay type: in vivo, Setaria faberii; details: for Plant response rating, Giant foxtail: 0 to 10 scale
Summary of the method: as §1

Question: Which results are given for C#CC(C)Oc1cc(-c2nn3c(c2Br)CCCC3)c(F)cc1Cl (centres unmarked) [Compound 66]?
Answer: Plant response rating, Lambsquarter (lambsquarters; POSTEMERGENCE, Rate 50 g/ha): 10; Plant response rating, Lambsquarter (lambsquarters; PREEMERGENCE, Rate 50 g/ha): 9; Plant response rating (0 to 10 scale), Lambsquarter (lambsquarters; PREEMERGENCE, Rate 200 g/ha): 10; Plant response rating, Lambsquarter (lambsquarters; Rate 200 g/ha, POSTEMERGENCE): 10; Plant response rating, Wild oat (wild oat; POSTEMERGENCE, 62 g/ha): 50; Plant response rating, Wild oat (wild oat; POSTEMERGENCE, 250 g/ha): 60; Plant response rating (0 to 100), Wild oat (wild oat; POSTEMERGENCE, Rate 4 g/ha): 10; Plant response rating, Wild oat (wild oat; PREEMERGENCE, 250 g/ha): 30; Plant response rating (0 to 100), Wild oat (wild oat; PREEMERGENCE, Rate 4 g/ha): 0; Plant response rating (0 to 100), Wild oat (wild oat; Rate 16 g/ha, POSTEMERGENCE): 20; Plant response rating (0 to 100), Wild oat (wild oat; Rate 16 g/ha, PREEMERGENCE): 0; Plant response rating, Velvetleaf (velvetleaf [1]; POSTEMERGENCE, 62 g/ha): 75; Plant response rating, Velvetleaf (velvetleaf [1]; POSTEMERGENCE, 250 g/ha): 100; Plant response rating (0 to 100), Velvetleaf (velvetleaf [1]; POSTEMERGENCE, Rate 4 g/ha): 60; Plant response rating, Velvetleaf (velvetleaf [1]; PREEMERGENCE, 250 g/ha): 100; Plant response rating (0 to 100), Velvetleaf (velvetleaf [1]; Rate 16 g/ha, POSTEMERGENCE): 65; Plant response rating (0 to 100), Velvetleaf (velvetleaf [1]; Rate 16 g/ha, PREEMERGENCE): 70; Plant response rating, Crabgrass (crabgrass; POSTEMERGENCE, 62 g/ha): 40; Plant response rating, Crabgrass (crabgrass; POSTEMERGENCE, 250 g/ha): 50; Plant response rating (0 to 100), Crabgrass (crabgrass; POSTEMERGENCE, Rate 4 g/ha): 10; Plant response rating, Crabgrass (crabgrass; PREEMERGENCE, 62 g/ha): 50; Plant response rating, Crabgrass (crabgrass; PREEMERGENCE, 250 g/ha): 100; Plant response rating (0 to 100), Crabgrass (crabgrass; PREEMERGENCE, Rate 4 g/ha): 0; Plant response rating (0 to 100), Crabgrass (crabgrass; Rate 16 g/ha, POSTEMERGENCE): 20; Plant response rating (0 to 100), Crabgrass (crabgrass; Rate 16 g/ha, PREEMERGENCE): 0; Plant response rating (0 to 100), Rice Japonica (rice; POSTEMERGENCE section, flood test, Rate 4 g/ha): 0; Plant response rating (0 to 100), Rice Japonica (rice; Rate 16 g/ha, under POSTEMERGENCE head (flood test species)): 0; Plant response rating Rice Japonica (rice; 62 g/ha): 10; Plant response rating Rice Japonica (rice; 250 g/ha): 25; Plant response rating, Velvetleaf (velvetleaf [2]; POSTEMERGENCE, Rate 50 g/ha): 10; Plant response rating, Velvetleaf (velvetleaf [2]; PREEMERGENCE, Rate 50 g/ha): 6; Plant response rating (0 to 10 scale), Velvetleaf (velvetleaf [2]; PREEMERGENCE, Rate 200 g/ha): 9; Plant response rating, Velvetleaf (velvetleaf [2]; Rate 200 g/ha, POSTEMERGENCE): 10; Plant response rating, Sorghum (sorghum; POSTEMERGENCE, 62 g/ha): 50; Plant response rating, Sorghum (sorghum; POSTEMERGENCE, 250 g/ha): 60; Plant response rating (0 to 100), Sorghum (sorghum; POSTEMERGENCE, Rate 4 g/ha): 30; Plant response rating, Sorghum (sorghum; PREEMERGENCE, 250 g/ha): 30; Plant response rating (0 to 100), Sorghum (sorghum; PREEMERGENCE, Rate 4 g/ha): 0; Plant response rating (0 to 100), Sorghum (sorghum; Rate 16 g/ha, POSTEMERGENCE): 40; Plant response rating (0 to 100), Sorghum (sorghum; Rate 16 g/ha, PREEMERGENCE): 0; Plant response rating, Sugar beet (sugar beet; POSTEMERGENCE, Rate 50 g/ha): 10; Plant response rating, Sugar beet (sugar beet; PREEMERGENCE, Rate 50 g/ha): 8; Plant response rating (0 to 10 scale), Sugar beet (sugar beet; PREEMERGENCE, Rate 200 g/ha): 10; Plant response rating, Sugar beet (sugar beet; Rate 200 g/ha, POSTEMERGENCE): 10; Plant response rating Pigweed (pigweed; POSTEMERGENCE, 62 g/ha): 100; Plant response rating Pigweed (pigweed; POSTEMERGENCE, 250 g/ha): 100; Plant response rating (0 to 100), Pigweed (pigweed; POSTEMERGENCE, Rate 4 g/ha): 30; Plant response rating Pigweed (pigweed; PREEMERGENCE, 62 g/ha): 100; Plant response rating Pigweed (pigweed; PREEMERGENCE, 250 g/ha): 100; Plant response rating (0 to 100), Pigweed (pigweed; PREEMERGENCE, Rate 4 g/ha): 0; Plant response rating (0 to 100), Pigweed (pigweed; Rate 16 g/ha, POSTEMERGENCE): 100; Plant response rating (0 to 100), Pigweed (pigweed; Rate 16 g/ha, PREEMERGENCE): 90; Plant response rating, Cotton (cotton; POSTEMERGENCE, 62 g/ha): 100; Plant response rating, Cotton (cotton; POSTEMERGENCE, 250 g/ha): 100; Plant response rating (0 to 100), Cotton (cotton; POSTEMERGENCE, Rate 4 g/ha): 70; Plant response rating, Cotton (cotton; PREEMERGENCE, 62 g/ha): 40; Plant response rating, Cotton (cotton; PREEMERGENCE, 250 g/ha): 90; Plant response rating (0 to 100), Cotton (cotton; PREEMERGENCE, Rate 4 g/ha): 0; Plant response rating (0 to 100), Cotton (cotton; Rate 16 g/ha, POSTEMERGENCE): 85; Plant response rating (0 to 100), Cotton (cotton; Rate 16 g/ha, PREEMERGENCE): 0; Plant response rating, Barnyardgrass (barnyardgrass; POSTEMERGENCE, Rate 50 g/ha): 5; Plant response rating, Barnyardgrass (barnyardgrass; PREEMERGENCE, Rate 50 g/ha): 0; Plant response rating (0 to 10 scale), Barnyardgrass (barnyardgrass; PREEMERGENCE, Rate 200 g/ha): 7; Plant response rating, Barnyardgrass (barnyardgrass; Rate 200 g/ha, POSTEMERGENCE): 9; Plant response rating, Giant foxtail (giant foxtail; POSTEMERGENCE, Rate 50 g/ha): 7; Plant response rating, Giant foxtail (giant foxtail; PREEMERGENCE, Rate 50 g/ha): 0; Plant response rating (0 to 10 scale), Giant foxtail (giant foxtail; PREEMERGENCE, Rate 200 g/ha): 6; Plant response rating, Giant foxtail (giant foxtail; Rate 200 g/ha, POSTEMERGENCE): 6
